Measured values as given in PubChem BioAssay (NCI).
“And” between values parts separate entries of the source, which are not always exact repeats. Equal values may be shown once.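 Step 1: Grow cells in 96-well plates. Step 2: Expose to compound for 48 hours at 5 concentrations. Step 3: Interpolate endpoints linearly; if unreached, use highest concentration. At the GI50, growth is halved. The concentration for full growth arrest is given as TGI.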

Legend:
Assay in all cases: inhibition of tumour cell growth, NCI panel, 48 h
ACHN renal = tested on: ACHN renal
CAKI-1 renal = tested on: CAKI-1 renal
KM12 colon = tested on: KM12 colon
MCF7 breast = tested on: MCF7 breast
MDA-MB-435 = tested on: MDA-MB-435
NCI-H522 lung = tested on: NCI-H522 lung
PC-3 prostate = tested on: PC-3 prostate
SF-295 CNS = tested on: SF-295 CNS
SN12C renal = tested on: SN12C renal
UO-31 renal = tested on: UO-31 renal

Row | SMILES | TGI (ACHN renal) | TGI (CAKI-1 renal) | TGI (KM12 colon) [µM] | TGI (MCF7 breast) [µM] | TGI (MDA-MB-435) [µM] | TGI (NCI-H522 lung) | TGI (PC-3 prostate) [µM] | TGI (SF-295 CNS) [µM] | TGI (SN12C renal) | TGI (UO-31 renal) [µM] | GI50 (ACHN renal) [µM] | GI50 (CAKI-1 renal) [µM] | GI50 (KM12 colon) [µM] | GI50 (MCF7 breast) [µM] | GI50 (MDA-MB-435) [µM] | GI50 (NCI-H522 lung) [µM] | GI50 (PC-3 prostate) [µM] | GI50 (SF-295 CNS) [µM] | GI50 (SN12C renal) [µM] | GI50 (UO-31 renal) [µM]
1 | O=C1c2ccccc2C(O)(O)C1(O)C1(O)C(=O)c2ccccc2C1(O)O (configuration not stated) | 47.9 µM | > 100 µM | > 100 | 30.5 | 32.8 | 44.5 µM | > 100 | 88.5 | 30.6 µM | 48.7 |  |  |  |  |  |  |  |  |  | 
2 | CCN(CC)CCCCNc1c2ccccc2[n+](C)c2c1[nH]c1ccccc12 | > 47.3 µM | 14.4 µM | 4.79 | 3.63 | 2.16 | 0.217 µM | 2.29 | 4.31 | 6.08 µM | > 50.6 | 2.27 | 2.05 | 0.385 | 0.256 | 0.6 | 0.0796 | 0.355 | 0.542 | 0.0699 | 3.13
3 | CCC1C2Cc3ccc(O)cc3C1(CC)CCN2C (configuration not stated) | > 100 µM | > 100 µM | > 100 | > 100 | > 100 | > 100 µM | > 100 | > 100 | > 100 µM | > 100 |  |  |  |  |  |  |  |  |  | 
4 | COc1cc2ccc(/C=C\[N+](=O)[O-])cc2cc1OC | 3.2 µM | 20 µM | 19.3 | 7.06 | 7.63 | 3.4 µM | 7.28 | 33.8 | 6.3 µM | 3.36 |  |  |  |  |  |  |  |  |  | 
5 | COc1ccc(-c2nc(-c3nc4ccc(OC)cc4[nH]3)c3ccccn23)cc1 | 36.6 µM | 49.4 µM | 15.8 | > 100 | > 100 | 11.2 µM | 32.2 |  | > 100 µM | 7.93 | 3.57 | 3.81 | 3.88 | 3.4 | 3.14 | 2.89 | 3.01 |  | 3.91 | 2.47
6 | CC(C)(C)n1cc(-c2ccnc(NCCCNS(=O)(=O)c3ccc(C(F)(F)F)cc3)c2)c(-c2cccc(O)c2)n1 | 3.54 µM | 4.21 µM |  | 3.63 | 3.35 | 3.98 µM | 3.72 | 3.12 | 3.03 µM | 3.06 | 1.88 | 1.99 |  | 1.78 | 1.81 | 1.99 | 1.64 | 1.69 | 1.61 | 1.58
7 | CN[C@@H](C)C(=O)N[C@H](C(=O)N1CCC[C@H]1C(=O)Nc1snnc1-c1ccccc1)C1CCCCC1 | > 100 µM | > 100 µM | > 100 | > 100 | > 100 | 53.4 µM | > 100 | > 100 | > 100 µM | > 100 | 52.7 | 68 | 34.4 | 59.1 | 32.1 | 18.3 | 48.6 | 34.4 | 74.9 | 97.4
8 | COc1ccc2cc(C(=O)/C=C/c3ccc(Cl)cc3Cl)ccc2c1 | 51.3 µM | 70 µM | 35 | > 100 | 17.7 | 85.5 µM | > 100 | > 100 | 67.9 µM | 32.3 | 15.1 | 15.8 | 14.3 | 18.1 | 4.5 | 32.8 | 30.8 | 35.9 | 25.9 | 15.5
9 | C(#Cc1ccccc1C#Cc1cccs1)c1cccs1 | > 100 µM | > 100 µM | > 100 | > 100 | > 100 | > 100 µM | > 100 | > 100 |  | > 100 | 78 | 43.2 | 29.5 | 43.3 | 37.2 | 34.2 | 25.4 | 30.6 |  | 35.8
10 | CC1CCC(NC(=O)N(CCCl)N=O)CC1 (configuration not stated) | 91.7 µM and 103 µM | 37.5 µM and 53.2 µM | 112 | 110 | 65.9 | 31.6 µM and 90 µM | 96.6 | 36.3 | 41.7 µM and 81.4 µM | 92 | 31.6 | 18.9 | 36.6 |  |  | 14.1 |  | 53.7 | 19.1 | 61.2
11 | COC(=O)c1nc(-c2ccccc2)oc1S(=O)(=O)Cc1ccccc1 | 3.15 µM | 3.42 µM | 39.2 | 11.1 | 23.6 | 3.29 µM | 29.4 | 36.3 | 15.5 µM | 2.84 | 1.77 | 1.84 | 20.8 | 2.72 | 11.1 | 1.52 | 15 | 16.5 | 4.27 | 1.48
12 | COc1c(C)c2c(c(O)c1C/C=C(\C)CCC(=O)O)C(=O)OC2 | > 100 µM | 14.7 µM | > 100 | > 100 | > 100 | > 100 µM | > 100 | > 100 | > 100 µM | > 100 | 0.457 | 0.134 | 0.374 | 0.18 | 0.32 | 0.262 | 0.61 | 0.278 | 0.499 | 0.472
13 | C[C@H]1[C@H](C)CC[C@]2(CO)CC[C@]3(C)C(=CC[C@@H]4[C@@]5(C)CCCNC(C)(C)[C@@H]5CC[C@]43C)[C@H]12 | 3.06 µM | 3.23 µM | 3.51 | 3.39 | 3.21 | 3.32 µM | 2.96 | 3.06 | 3.11 µM | 2.99 | 1.69 | 1.62 | 1.84 | 1.58 | 1.59 | 1.71 | 1.55 | 1.64 | 1.64 | 1.54
14 | Cc1ccc(S(=O)(=O)N/N=C/c2c(O)ccc3ccccc23)cc1 | > 100 µM | 35.3 µM | 44.9 | > 100 | 55.3 | 45.6 µM | 58.6 | 57.5 | > 100 µM | > 100 |  |  |  |  |  |  |  |  |  | 
15 | C=C(C)C(=O)Nc1ccc(NC(C)C)cc1 | > 100 µM | > 100 µM | > 100 | > 100 | > 100 | > 100 µM | > 100 | > 100 | > 100 µM | > 100 | > 100 | > 100 | > 100 | > 100 | > 100 | > 100 | > 100 | > 100 | > 100 | > 100
16 | C=C1CCC2C3(C)COC(c4ccc(N(C)C)cc4)OC3CCC2(C)C1C/C=C1/C(=O)OCC1O (configuration not stated) | 21.4 µM | 5.66 µM | 7.58 | 13 | 10.5 | 14 µM | 9.83 | 20 | 7.98 µM | 18.9 | 9.16 | 2.12 | 2.62 | 2.32 | 2.88 | 3.22 | 2.32 | 6 | 2.52 | 5.63
17 | COc1cc2c(cc1C)NC(=O)/C2=C/c1ccccn1 | 35.6 µM | 9.59 µM |  | > 100 | > 100 | > 100 µM | > 100 | 13.3 | 18.4 µM | > 100 | 2.48 | 2.72 |  | 3.27 | 3.77 | 3.37 | 8.73 | 3.46 | 4.01 | 12.2
18 | COc1ccc(-c2cn(-c3cc(OC)c(OC)c(OC)c3)c(SCc3ccccc3)n2)cc1OC | > 100 µM | > 100 µM | > 100 | > 100 | > 100 | > 100 µM | > 100 | > 100 | > 100 µM | > 100 | > 100 | > 100 | > 100 | > 100 | > 100 | > 100 | > 100 | > 100 | > 100 | 45.5
19 | COc1cc(C(=O)O[C@H](C(=O)NCCCCCNC(=O)[C@@H](OC(=O)c2cc(OC)cc3c(C)cccc23)[C@]2(C)CO2)[C@]2(C)CO2)c2cccc(C)c2c1 | < 0.0338 µM | 1.89 µM | 1.41 |  | 0.0913 | > 22.3 µM | > 41.1 | 6.75 | 1.15 µM | > 100 | < 0.0143 | 0.355 | 0.5 | < 0.0123 | 0.016 | 0.565 | 0.997 | 2.5 | 0.364 | 2.24
20 | O=C(CCCCCCCCC(=O)N/N=C\c1ccccc1O)N/N=C\c1ccccc1O | 20.1 µM | 14.9 µM | > 40.3 | > 100 | > 100 | > 100 µM | > 58.6 | 31.7 | > 42.4 µM | 3.9 | 0.235 | 0.318 | 0.785 | 1.99 | 0.704 | 0.257 | 0.855 | 1.07 | 0.7 | 0.197
21 | O=[N+]([O-])O.[Cu+2].[NH-]CC[NH-].[NH-]CC[NH-] | > 10 µM | > 10 µM | > 10 | > 10 | > 10 | > 10 µM | > 10 | > 10 | > 10 µM | > 10 | > 10 | > 10 | > 10 | > 10 | > 10 | > 10 | > 10 | > 10 | > 10 | > 10
22 | CN(C)CCN1C(=O)c2ccccc2N(C)c2ccccc21 | > 100 µM | > 100 µM | > 100 | > 100 | > 100 | > 100 µM | > 100 | > 100 | > 100 µM | > 100 | > 100 | > 100 | > 100 | > 100 | > 100 | > 100 | > 100 | > 100 | > 100 | > 100
23 | O=C1Nc2ccccc2/C1=C/C(=O)c1coc2c1C(=O)c1ccccc1C2=O | > 100 µM | > 100 µM | > 100 | > 100 | > 100 | > 100 µM | > 100 | > 100 | > 100 µM | > 100 | > 100 | 34.2 | > 100 | 74.7 | > 100 | > 100 | > 100 | > 100 | > 100 | 70.4
24 | N#CC(NC12CC3CC(CC(C3)C1)C2)c1ccc2c(c1)OCO2 (configuration not stated) | > 100 µM | > 100 µM | > 100 | > 100 | > 100 | > 100 µM | > 100 | > 100 | > 100 µM | > 100 |  |  |  |  |  |  |  |  |  | 
25 | C=C1C(=O)O[C@H]2[C@H]1CC/C(COC(=O)NCc1ccc(Cn3c(=O)sn(CCCl)c3=O)cc1)=C\CC[C@@]1(C)O[C@@H]21 | 2.87 µM | 3.71 µM | 27.7 | 4.4 | 3.47 | 2.98 µM | 21 | 30.3 | 4.28 µM | 3.25 | 1.54 | 1.76 | 13.4 | 1.91 | 1.74 | 1.38 | 8.09 | 16.4 | 2.01 | 1.65
26 | Nc1c(C(=O)c2cccc(-c3ccncc3)c2)cnn1-c1ccc(F)cc1F | > 25 µM | > 25 µM | > 25 | > 25 | 3.56 | > 18.7 µM | > 25 | > 25 | > 25 µM | > 25 | 12 | 8.1 | 2.05 | 3.08 | 0.684 | 5.73 | 4.83 | 8.36 | 12.1 | 8.96
27 | COc1cc([C@@H]2OC[C@@H]3C(c4cc(OC)c5c(c4)OCO5)OC[C@@H]32)cc(OC)c1OC (some centres not stated) | > 100 µM | > 100 µM | > 100 | > 100 | > 100 | > 100 µM | > 100 | > 100 |  | > 100 |  |  |  |  |  |  |  |  |  | 
